These results are taken from patent US4699897A, “Biologically active peptides structurally related to regions within growth hormones” (Amgen, priority 1983, dated 1987).

One test has as its system rabbits. The conditions noted are these: cited from earlier work.
Test [1] concerns normal rats. Particulars: cited from earlier work.
Test [2] relates to insulin-stimulated fat cells of older obese rats. The conditions noted are these: cited from earlier work.
Test [3] deals with normal male Sprague-Dawley rats. Nature of the test: Insulin potentiating effects in normal rats (plasma glucose after i.p. glucose load). It is filed as in vivo, rat. Particulars: for Plasma Glucose (mg/dL at 60 min.), Glucose + Insulin + Peptide: rats fasted 18 h, i.p. 1.0 ml 0.75M glucose + 15 mU insulin + 25 μg peptide, mean ± standard error. The procedure:
A study was conducted to determine insulin potentiating effects of Peptide Nos. 3, 5, and 6. Also tested was a dipeptide NH2 -Ile-Pro-COOH, a dipeptide outside the scope of the invention. Test groups of 5 normal male Sprague-Dawley rats weighing about 200 grams were fasted for 18 hours and received (intraperitoneally in rapid succession) 1.0 ml of 0.75M glucose, and either 15 mU of insulin with 1% bovine serum ablumin in normal saline (pH 7.4) or a mixture of insulin as above with 25 μg Peptide Nos. 3, 5, 6 and dipeptide. Controls received only bovine serum albumin and saline. Blood was drawn after one hour and plasma glucose levels were determined.

The subject of test [4] is various model animal test systems. Particulars: cited from earlier work.
Test [5] concerns ob/ob, ob/+, db/db and db/m mice. Nature of the test: Insulin potentiating effects of Peptide No. 6 compared to DP in mice (plasma glucose). It is filed as in vivo, mouse. Particulars: for Plasma Glucose (mg/dL at 60 min.), Glucose + Insulin + peptide, Mouse db/db / Plasma Glucose (mg/dL at 60 min.), Glucose + Insulin + peptide, Mouse db/m (normal) / Plasma Glucose (mg/dL at 60 min.), Glucose + Insulin + peptide, Mouse ob/+ (normal) / Plasma Glucose (mg/dL at 60 min.), Glucose + Insulin + peptide, Mouse ob/ob: i.p. glucose + insulin 0.001 mU/10 g + peptide 5 μg/10 g. The method, then:
(§1) A study was conducted to determine the relative insulin potentiating effects of Peptide No. 6 as compared to those of deletion peptide ("hGH32-46 ").
(§2) Animals in test groups of five each were meployed in these procedures. Sprague-Dawley rats weighed approximately 200 grams; homozygous genetically abnormal mice (db/db and ob/ob) had weights in the range of 40 to 60 grams; heterozygous normal mice all weighed approximately 25 grams. Glucose was administered intraperitoneally at a dosage of […] of a solution containing 135 mg/ml glucose, except for one group of rats which were given an oral dose of 1 ml of 270 mg/ml glucose solution. Insulin was intraperitoneally administered at a dose of 0.001 mU/10 g and both Peptide No. 6 and deletion peptide were administered were simultaneously administered at a dose of 5 μg/10 g.

Test [6] deals with normal female Rhesus monkeys. Briefly: Insulin potentiating effects in primates of Peptide No. 6 compared to deletion peptide (plasma glucose). The test is classed as in vivo, Rhesus monkey. The method, then:
In a manner analogous to Study C, above, Peptide No. 6 and deletion peptide were studied for insulin potentiating effects in Rhesus monkeys. Blood samples were drawn from normal female monkeys (in […] experimental groups of 3) five minutes before administration of an oral dose of 3.0 ml/kg of 0.5 g/ml glucose and intramuscular administration of either: (1) 0.5 ml/kg phosphate buffered saline (PBS), pH 7.4; (2) deletion peptide 0.1 ml/kg of 1.0 mg/ml solution in PBS; (3) deletion peptide as above combined with 0.5 ml/kg of 20 mU/ml insulin in PBS; or (4) insulin alone as above or (5) Peptide No. 6 0.1 ml/kg of a 0.5 mg/ml solution in PBS combined with insulin as above. Blood samples were then periodically withdrawn over two hours and analyzed for plasma glucose levels.

Another test concerns Sprague-Dawley rats. Briefly: Insulin potentiating effects of Peptide No. 6 compared to DP in rats (plasma glucose). It is filed as in vivo. Particulars: for Plasma Glucose (mg/dL at 60 min.), Glucose + Insulin + peptide, Rat (normal): i.p. glucose + insulin 0.001 mU/10 g + peptide 5 μg/10 g. The method, then: as §1, §2
For test [7], the system named is GT-impaired strain of mice (YS/Wf Nctr). The conditions noted are these: cited from earlier work.
Test [8] has as its system normal rats. Particulars: cited from earlier work. The source holds these as a separate data set.
For the next test, the system named is db/db mice. Briefly: Insulin potentiating effects on genetically altered mice at differing ages (plasma glucose). The conditions noted are these: for Plasma Glucose (mg/dL at 60 min.), Age: 8 weeks, Glucose + Insulin + Peptide: db/db mice aged 8 weeks; for Plasma Glucose (mg/dL at 60 min.), Age: 8 weeks, Glucose + Insulin + Peptide / Plasma Glucose (mg/dL at 60 min.), Age: 14 weeks, Glucose + Insulin + Peptide: i.p. glucose + insulin 0.001 mU/10 g + peptide 5 μg/10 g; for Plasma Glucose (mg/dL at 60 min.), Age: 14 weeks, Glucose + Insulin + Peptide: db/db mice aged 14 weeks. It is filed as in vivo, mouse. The procedure: A study was conducted to ascertain insulin potentiating effects of Peptide Nos. 6, 9 and 10 on db/db mice aged 8 weeks and 14 weeks.
Test groups of 5 each of db/db mice weighing from 40 to 60 grams each were used. Glucose was administered intraperitoneally at a dosage of […] of a solution containing 135 mg/ml glucose. Insulin was intraperitoneally administered at a dose of 0.001 mU/10 g and Peptide Nos. 6, 9 and 10 were each simultaneously administered at a dose of 5 μg/10 g.

Square brackets hold non-standard residues; d marks the D form. Peptide text beside a SMILES is read from it.

Take “synthetic tetradecapeptide having a sequence of amino acids copying residues at positions 31 through 44: literature tetradecapeptide copying hGH residues 31 through 44 (Yudaev et al.) (FEEAYIPKEQKYSF; UniProt P01241 57-70, looked up, fragment)”: the “in vivo hypoglycemic effect” value in the test with rabbits and with normal rats [1] was “absence of any in vivo hypoglycemic effect” in each case. In addition, the “in vitro effect on fat cells” value in test [2] (Yudaev et al. 1983) is given as “substantially the same in vitro effect on fat cells”.

Consider `CC[C@H](C)[C@H](N)C(=O)N1CCC[C@H]1C(=O)O` [NH2 --Ile--Pro--COOH, NH2 -Ile-Pro-COOH] (H-Ile-Pro-OH), for which the Plasma Glucose (mg/dL at 60 min.), Glucose + Insulin + Peptide in test [3] was 95 ± 30 mg/dL.

Regarding `CC[C@H](C)[C@H](NC(=O)[C@H](Cc1ccc(O)cc1)NC(=O)[C@H](C)NC(=O)[C@H](CCC(=O)O)NC(=O)[C@@H](N)CCC(=O)O)C(=O)N1CCC[C@H]1C(=O)N[C@@H](CCCCN)C(=O)N[C@@H](CCC(=O)O)C(=O)N[C@@H](CCC(N)=O)C(=O)N[C@@H](CCCCN)C(=O)N[C@@H](Cc1ccc(O)cc1)C(=O)N[C@@H](CO)C(=O)N[C@@H](Cc1ccccc1)C(=O)N[C@@H](CC(C)C)C(=O)N[C@@H](CCC(N)=O)C(=O)O` [hGH32-46, NH2 -Glu-Glu-Ala-Tyr-Ile-Pro-Lys-Glu-Gln-Lys-Tyr-Ser-Phe-Leu-Gln-COOH] (H-EEAYIPKEQKYSFLQ-OH), in [4] (contemporaneously administered with exogenous insulin), the “potentiation of insulin activity” value was “potentiate insulin activity and augment the hypoglycemic effectiveness of even quite small parenteral doses of insulin”. In test [4] (various model animal test systems), the “hypoglycemic effects of the peptide alone” value is “lacked hypoglycemic effects”. Besides, in [5], the Plasma Glucose (mg/dL at 60 min.), Glucose + Insulin + peptide, Mouse db/db was determined as 134 ± 13 mg/dL; the Plasma Glucose (mg/dL at 60 min.), Glucose + Insulin + peptide, Mouse db/m (normal) is 49 ± 12 mg/dL; the Plasma Glucose (mg/dL at 60 min.), Glucose + Insulin + peptide, Mouse ob/+ (normal) stood at 56 ± 9 mg/dL; the Plasma Glucose (mg/dL at 60 min.), Glucose + Insulin + peptide, Mouse ob/ob was 138 ± 11 mg/dL. Also, the Plasma Glucose (mg/dL), Glucose + Insulin + hGH32-46, +5 min. in test [6] (+5 min., oral glucose + i.m. insulin + peptide 0.1 ml/kg of 1.0 mg/ml) is 64 ± 4 mg/dL. Besides, in [6] (+15 min., oral glucose + i.m. insulin + peptide 0.1 ml/kg of 1.0 mg/ml), the Plasma Glucose (mg/dL), Glucose + Insulin + hGH32-46, +15 min. was found to be 69 ± 9 mg/dL. For the same compound, the Plasma Glucose (mg/dL), Glucose + Insulin + hGH32-46, +30 min. in [6] (+30 min., oral glucose + i.m. insulin + peptide 0.1 ml/kg of 1.0 mg/ml) was found to be 80 ± 5.3 mg/dL. Moreover, the Plasma Glucose (mg/dL), Glucose + Insulin + hGH32-46, +45 min. in test [6] (+45 min., oral glucose + i.m. insulin + peptide 0.1 ml/kg of 1.0 mg/ml) stood at 80 ± 5.9 mg/dL. Further, in test [6] (+60 min., oral glucose + i.m. insulin + peptide 0.1 ml/kg of 1.0 mg/ml), the Plasma Glucose (mg/dL), Glucose + Insulin + hGH32-46, +60 min. was found to be 96 ± 8 mg/dL. Besides, the Plasma Glucose (mg/dL), Glucose + Insulin + hGH32-46, +120 min. in [6] (+120 min., oral glucose + i.m. insulin + peptide 0.1 ml/kg of 1.0 mg/ml) turned out to be 97 ± 6.6 mg/dL. In addition, the Plasma Glucose (mg/dL at 60 min.), Glucose + Insulin + peptide, Rat* (normal) in the test with Sprague-Dawley rats (glucose administered orally (1 ml of 270 mg/ml) + insulin 0.001 mU/10 g + peptide 5 μg/10 g) is 93.3 ± 14 mg/dL. Besides, the Plasma Glucose (mg/dL at 60 min.), Glucose + Insulin + peptide, Rat (normal) in the test on Sprague-Dawley rats worked out at 73 ± 10 mg/dL. Besides, the glucose tolerance result in test [7] was “unspecified degree of improvement in glucose tolerance”. Further, in [2] (insulin-stimulated fat cells of older obese rats, Frigeri et al.), the “in vitro glucose utilization of fat cells” value is on record as “in vitro increase in glucose utilization”. Besides, the “late increases in free fatty acids and glycemic effects” value in the test on normal rats [8] is reported as “did not show either the late increases in free fatty acids nor the glycemic effects which are characteristic of intact hGH”.

Consider `CC[C@H](C)[C@H](NC(=O)[C@H](Cc1ccc(O)cc1)NC(=O)[C@H](C)NC(=O)[C@H](CCC(=O)O)NC(=O)[C@@H](N)CCC(=O)O)C(=O)N1CCC[C@H]1C(=O)N[C@@H](CCCCN)C(=O)O` [Peptide No. 6, GLU--GLU--ALA--TYR--ILE--PRO--LYS] (H-EEAYIPK-OH), for which, in test [5], the Plasma Glucose (mg/dL at 60 min.), Glucose + Insulin + peptide, Mouse db/db is 109 ± 22 mg/dL; the Plasma Glucose (mg/dL at 60 min.), Glucose + Insulin + peptide, Mouse db/m (normal) is 22 ± 10 mg/dL; the Plasma Glucose (mg/dL at 60 min.), Glucose + Insulin + peptide, Mouse ob/+ (normal) turned out to be 28.5 ± 5 mg/dL; the Plasma Glucose (mg/dL at 60 min.), Glucose + Insulin + peptide, Mouse ob/ob turned out to be 118 ± 20 mg/dL. In [5] (mice and rats, Table V), the “insulin potentiating effect relative to deletion peptide (in words)” value is “uniformly more effective in potentiating insulin effects than deletion peptide alone”. In test [6] (+5 min., oral glucose + i.m. insulin + peptide 0.1 ml/kg of 0.5 mg/ml), the Plasma Glucose (mg/dL), Glucose + Insulin + Peptide No. 6, +5 min. was determined as 62 ± 6 mg/dL. Further, in [6] (+15 min., oral glucose + i.m. insulin + peptide 0.1 ml/kg of 0.5 mg/ml), the Plasma Glucose (mg/dL), Glucose + Insulin + Peptide No. 6, +15 min. amounted to 69.5 ± 6 mg/dL. The Plasma Glucose (mg/dL), Glucose + Insulin + Peptide No. 6, +30 min. in test [6] (+30 min., oral glucose + i.m. insulin + peptide 0.1 ml/kg of 0.5 mg/ml) stood at 68 ± 9.7 mg/dL. Further, in test [6] (+45 min., oral glucose + i.m. insulin + peptide 0.1 ml/kg of 0.5 mg/ml), the Plasma Glucose (mg/dL), Glucose + Insulin + Peptide No. 6, +45 min. came to 73 ± 3.5 mg/dL. Moreover, the Plasma Glucose (mg/dL), Glucose + Insulin + Peptide No. 6, +60 min. in test [6] (+60 min., oral glucose + i.m. insulin + peptide 0.1 ml/kg of 0.5 mg/ml) amounted to 79 ± 6.5 mg/dL. Further, the Plasma Glucose (mg/dL), Glucose + Insulin + Peptide No. 6, +120 min. in [6] (+120 min., oral glucose + i.m. insulin + peptide 0.1 ml/kg of 0.5 mg/ml) turned out to be 88 ± 12 mg/dL. Besides, the “insulin potentiating effect relative to deletion peptide (in words)” value in test [6] (Table VI) was “essentially on par with, or superior on a weight basis to, those of deletion peptide”. Further, the Plasma Glucose (mg/dL at 60 min.), Glucose + Insulin + peptide, Rat (normal) in the test on Sprague-Dawley rats is 52 ± 6 mg/dL. Moreover, the “insulin potentiating effect (in words)” value in [3] (normal rats, Table III) was “exceptionally active insulin potentiator”. In [3], the Plasma Glucose (mg/dL at 60 min.), Glucose + Insulin + Peptide worked out at 52 ± 28 mg/dL. Besides, the “insulin potentiating effect (in words)” value in the test on db/db mice (db/db mice aged 8 and 14 weeks, Table IV) was “significant effectiveness”. Besides, in the test with db/db mice, the Plasma Glucose (mg/dL at 60 min.), Age: 8 weeks, Glucose + Insulin + Peptide was 92.3 ± 12 mg/dL and the Plasma Glucose (mg/dL at 60 min.), Age: 14 weeks, Glucose + Insulin + Peptide worked out at 124 ± 34 mg/dL.

Regarding `CC[C@H](C)[C@H](NC(=O)[C@H](Cc1ccc(O)cc1)NC(=O)[C@@H](C)NC(=O)[C@H](CCC(=O)O)NC(=O)[C@@H](N)CCC(=O)O)C(=O)N1CCC[C@H]1C(=O)N[C@@H](CCCCN)C(=O)O` [Peptide No. 9] (H-EE[dA]YIPK-OH), in the test on db/db mice, the Plasma Glucose (mg/dL at 60 min.), Age: 8 weeks, Glucose + Insulin + Peptide was determined as 90.8 ± 16 mg/dL and the Plasma Glucose (mg/dL at 60 min.), Age: 14 weeks, Glucose + Insulin + Peptide was 228 ± 38 mg/dL.
